Active and inactive are the calls of the source. The rule behind the calls is not given here.
How the values were obtained:
L929 = test: Anti-necroptosis activity against TNFalpha/z-VAD-fmk-induced mouse L929 cell necroptosis model assessed as cell viability pretreated with compound for 1 hr followed by treated with TZ for 6 hrs; type: functional, cell-based
[1] = biological target: T1, Receptor-interacting serine/threonine-protein kinase 1 (Homo sapiens, UniProt Q13546); test: Inhibition of RIPK1 (unknown origin) using MBP substrate incubated for 2 hrs by ADP-Glo kinase function assay
T1 sequence (Q13546 whole entry): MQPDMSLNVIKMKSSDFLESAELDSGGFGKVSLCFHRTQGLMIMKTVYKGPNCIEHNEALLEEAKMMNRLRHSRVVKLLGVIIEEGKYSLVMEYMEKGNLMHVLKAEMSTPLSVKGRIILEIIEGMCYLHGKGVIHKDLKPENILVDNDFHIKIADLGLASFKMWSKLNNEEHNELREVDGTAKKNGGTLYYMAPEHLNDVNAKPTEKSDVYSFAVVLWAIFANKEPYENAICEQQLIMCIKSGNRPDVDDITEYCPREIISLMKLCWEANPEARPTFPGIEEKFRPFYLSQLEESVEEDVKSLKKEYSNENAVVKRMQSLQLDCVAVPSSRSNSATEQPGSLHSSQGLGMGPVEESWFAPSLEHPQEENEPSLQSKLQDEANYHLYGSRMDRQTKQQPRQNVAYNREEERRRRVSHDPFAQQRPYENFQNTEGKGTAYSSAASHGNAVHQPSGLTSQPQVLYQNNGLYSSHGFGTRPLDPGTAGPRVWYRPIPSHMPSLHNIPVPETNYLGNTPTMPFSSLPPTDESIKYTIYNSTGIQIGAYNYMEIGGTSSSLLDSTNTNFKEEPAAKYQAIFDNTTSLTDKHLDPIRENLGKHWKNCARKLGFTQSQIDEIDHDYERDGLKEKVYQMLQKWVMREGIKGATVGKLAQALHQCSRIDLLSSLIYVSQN

[2] = Cytotoxicity against mouse L929 cells by CCK-8 assay; type: toxicity, cell-based
Mus musculus = test: In vivo anti-necroptotic effect in TNFalpha-induced systemic inflammatory response syndrome C57BL/6J mouse model assessed as reduction in hypothermic injury by measuring increase in survival at 10 mg/kg, ip followed by compound treatment after 1 hr injected moue TNFalpha and measured continuously upto 72 hrs; type: functional; conditions: time 73 hrs
HT-29 = test: Anti-necroptosis activity against TS-induced human HT-29 cell necroptosis model assessed as cell viability at 0.039 to 10 uM pretreated with compound for 1 hr followed by treated with TS for 12 hrs; type: functional, cell-based; conditions: dose 0.039-10 µM

IC50 [1] | Compound | EC50 (L929) | CC50 [2] | survival at 10 mg/kg (Mus musculus) | Activity (HT-29)
180 nM | CCNC(=O)c1ccc(-c2cc3cccnc3[nH]2)cc1 | 240 nM | > 50000 nM | – | –
350 nM | c1cnc2[nH]c(-c3ccc4ncsc4c3)cc2c1 | 340 nM | > 50000 nM | – | –
1180 nM | c1cnc2[nH]c(-c3ccc4c(c3)CCCO4)cc2c1 | 890 nM | > 50000 nM | – | –
9000 nM | c1ccc(Oc2ccc(-c3cc4cccnc4[nH]3)cc2)cc1 | 7540 nM | > 50000 nM | – | –
90 nM | CC(C)(C)NC(=O)c1ccc(-c2cc3cccnc3[nH]2)cc1 | 170 nM | > 50000 nM | – | –
170 nM | NC(=O)c1ccc(-c2cnc3[nH]ccc3c2)cc1 | 710 nM | > 50000 nM | – | –
1170 nM | N#Cc1ccc(-c2cnc3[nH]ccc3c2)cc1 | 1850 nM | > 50000 nM | – | –
230 nM | OCCc1ccc(-c2cc3cccnc3[nH]2)cc1 | 300 nM | > 50000 nM | – | –
90 nM | COc1ccc(-c2cc3ccc[nH]c-3n2)cc1 | 150 nM | > 50000 nM | – | –
1090 nM | Oc1ccc(-c2cnc3[nH]ccc3c2)cc1 | 1470 nM | > 50000 nM | – | –
270 nM | O/N=C/c1ccc(-c2cc3cccnc3[nH]2)cc1 | 670 nM | > 50000 nM | – | –
100 nM | O=C(c1ccc(-c2cc3cccnc3[nH]2)cc1)N1CCNCC1 | 90 nM | > 50000 nM | – | –
140 nM | O=C(c1ccc(-c2cc3cccnc3[nH]2)cc1)N1CCCC1 | 260 nM | > 50000 nM | – | –
120 nM | O=C(c1ccc(-c2cc3cccnc3[nH]2)cc1)N1CCCCC1 | 130 nM | > 50000 nM | – | –
220 nM | CC(C)(C)Oc1ccc(-c2cc3cccnc3[nH]2)cc1 | 170 nM | > 50000 nM | – | –
170 nM | OCc1ccc(-c2cc3cccnc3[nH]2)cc1 | 140 nM | > 50000 nM | – | –
120 nM | COc1cc(-c2cc3cccnc3[nH]2)ccc1O | 140 nM | > 50000 nM | – | –
240 nM | Nc1ccc(-c2cc3cccnc3[nH]2)cc1 | 270 nM | > 50000 nM | – | –
1080 nM | Oc1cccc(-c2cc3cccnc3[nH]2)c1 | 1230 nM | > 50000 nM | – | –
3870 nM | Oc1ccc(-c2cc3cccnc3[nH]2)cc1Cl | 5140 nM | > 50000 nM | – | –
230 nM | Oc1ccc(-c2ccc(-c3cc4cccnc4[nH]3)cc2)cc1 | 350 nM | > 10000 nM | – | –
3660 nM | O/N=C/c1ccc(-c2cnc3[nH]ccc3c2)cc1 | 4270 nM | > 20000 nM | – | –
630 nM | CCCNC(=O)c1ccc(-c2cc3cccnc3[nH]2)cc1 | 810 nM | > 50000 nM | – | –
4860 nM | Oc1ccc(-c2cnc3[nH]ccc3n2)cc1 | 5100 nM | > 50000 nM | – | –
950 nM | Oc1ccccc1-c1cc2cccnc2[nH]1 | 1140 nM | > 50000 nM | – | –
130 nM | CC(C)N(C(=O)c1ccc(-c2cc3cccnc3[nH]2)cc1)C(C)C | 190 nM | > 50000 nM | – | –

Continued, compound first:

Compound | IC50 [1] | EC50 (L929) | CC50 [2] | survival at 10 mg/kg (Mus musculus) | Activity (HT-29)
NC(=O)c1ccc(-c2cc3cccnc3[nH]2)cc1 | 110 nM | 90 nM | > 50000 nM | – | –
CN1C(=O)C(Cc2c[nH]c3ccccc23)NC1=S (stereo unspecified) [NECROSTATIN] | – | – | – | 25% | –
CC(C)(C)Oc1ccc(-c2cnc3[nH]ccc3c2)cc1 | – | > 10000 nM | > 20000 nM | – | –
Oc1ccc(-c2ccc3cc[nH]c3n2)cc1 | – | > 10000 nM | > 50000 nM | – | –
Oc1ccc(-c2cnc3[nH]cnc3c2)cc1 | – | > 10000 nM | > 50000 nM | – | –
Oc1ccc(-c2c[nH]c3ncccc23)cc1 | – | > 10000 nM | > 50000 nM | – | –
Oc1ccc(-c2cc3cccnc3[nH]2)cc1 | – | 1310 nM | > 50000 nM | – | inactive
CNC(=O)c1ccc(-c2cc3cccnc3[nH]2)cc1 | 93 nM | 95 nM | > 50000 nM | – | –
c1ccc(Oc2ccccc2-c2cnc3[nH]ccc3c2)cc1 | – | > 10000 nM | > 20000 nM | – | –
Oc1ccc(-c2cnc3nccnc3c2)cc1 | – | > 10000 nM | > 50000 nM | – | –
Oc1cccc(-c2cnc3[nH]ccc3c2)c1 | – | > 10000 nM | > 50000 nM | – | –
Oc1ccc2ccc(-c3cc4cccnc4[nH]3)cc2c1 | 2600 nM | 1420 nM | > 50000 nM | – | –
Oc1ccc(-c2cc3cccnc3[nH]2)cc1F | 2560 nM | 1180 nM | > 50000 nM | – | –
O=C(NC1CC1)c1ccc(-c2cc3cccnc3[nH]2)cc1 | 200 nM | 190 nM | > 50000 nM | – | –
Oc1ccc(-c2ccnc3[nH]ccc23)cc1 | – | > 10000 nM | > 50000 nM | – | –
Oc1ccccc1-c1cnc2[nH]ccc2c1 | – | > 10000 nM | > 50000 nM | – | –
CN1CCN(C(=O)c2ccc(-c3cc4cccnc4[nH]3)cc2)CC1 | 100 nM | 60 nM | > 20000 nM | – | –
CC(C)NC(=O)c1ccc(-c2cc3cccnc3[nH]2)cc1 | 500 nM | 810 nM | > 50000 nM | – | –

From ChEMBL document CHEMBL5385887, “Discovery of Sibiriline derivatives as novel receptor-interacting protein kinase 1 inhibitors” (Eur J Med Chem, 2023)
